{"source": "patent US11154470B1", "about": "“Anti-inflammatory and senolytic dental care product with tooth whitening characteristics” (Credentis AG, priority 2020, dated 2021)", "test": "Tooth whitening: colour change of tooth enamel measured with a dental spectrophotometer (L*a*b, ISO 28399)", "details": "peptide alone 7.5 mg/mL, without excipients; 24 h after application; 10 teeth, three measurements per tooth", "description": "Suspensions of oligopeptide 104 (5 mg/ml) with or without hydroxyapatite particles (average size d50≤300 nm (Horiba); 40-60% crystallinity, 25 wt %) were generated.\nThe suspensions were directly applied onto an enamel surface of a tooth, and residues washed off (10 sec). The specimen was stored in distilled water for 24 hours at 37° C. The procedure was repeated 3 times.\nThe tooth colour was measured with a dental spectrophotometer (VITA Easyshade). The illumination conditions were standardized with a black box as the background for the teeth during the measurement. The tip was applied perpendicular to the tooth surface and the average L*a*b-values from three repetitions were used for evaluations. Colour measurement were done at baseline ([…]), 24 hours after first application (t1), 24 hours after second application (t3), 24 hours after the third application (t4).\nThe mean changes of the L*a*b-values between different measurements in each group were expressed as […]E (according to ISO 28399).\nOligopeptide 104 was used in a concentration of 7.5 mg/mL, i.e., the concentration was higher than the concentration of peptide used in the application alone. ΔE was determined 24 h after application, with three measurements per tooth and 10 teeth examined. ΔE was 0.62. […]", "data": [{"sequence": "QQRFEWEFEQQ (P11-4 / oligopeptide 104)", "values": [{"measurement": "ΔE", "result": 0.62}]}]}
